Where two headings read alike, the source gives them in different places. Values belong to the molecule of their own block, whether it stands above or below them.
How the values were obtained:
hERG = biological target: T1, hERG (Homo sapiens, UniProt Q12809); assay: hERG inhibition test, whole-cell patch clamp in HEK293 cells stably expressing the hERG ion channel; assay type: cell-based; settings: human, HEK293 cells stably expressing the hERG ion channel
T1 construct: expressed in transfected cells; host or cells: HEK293 cells stably expressing hERG
T1 sequence (Q12809 whole entry): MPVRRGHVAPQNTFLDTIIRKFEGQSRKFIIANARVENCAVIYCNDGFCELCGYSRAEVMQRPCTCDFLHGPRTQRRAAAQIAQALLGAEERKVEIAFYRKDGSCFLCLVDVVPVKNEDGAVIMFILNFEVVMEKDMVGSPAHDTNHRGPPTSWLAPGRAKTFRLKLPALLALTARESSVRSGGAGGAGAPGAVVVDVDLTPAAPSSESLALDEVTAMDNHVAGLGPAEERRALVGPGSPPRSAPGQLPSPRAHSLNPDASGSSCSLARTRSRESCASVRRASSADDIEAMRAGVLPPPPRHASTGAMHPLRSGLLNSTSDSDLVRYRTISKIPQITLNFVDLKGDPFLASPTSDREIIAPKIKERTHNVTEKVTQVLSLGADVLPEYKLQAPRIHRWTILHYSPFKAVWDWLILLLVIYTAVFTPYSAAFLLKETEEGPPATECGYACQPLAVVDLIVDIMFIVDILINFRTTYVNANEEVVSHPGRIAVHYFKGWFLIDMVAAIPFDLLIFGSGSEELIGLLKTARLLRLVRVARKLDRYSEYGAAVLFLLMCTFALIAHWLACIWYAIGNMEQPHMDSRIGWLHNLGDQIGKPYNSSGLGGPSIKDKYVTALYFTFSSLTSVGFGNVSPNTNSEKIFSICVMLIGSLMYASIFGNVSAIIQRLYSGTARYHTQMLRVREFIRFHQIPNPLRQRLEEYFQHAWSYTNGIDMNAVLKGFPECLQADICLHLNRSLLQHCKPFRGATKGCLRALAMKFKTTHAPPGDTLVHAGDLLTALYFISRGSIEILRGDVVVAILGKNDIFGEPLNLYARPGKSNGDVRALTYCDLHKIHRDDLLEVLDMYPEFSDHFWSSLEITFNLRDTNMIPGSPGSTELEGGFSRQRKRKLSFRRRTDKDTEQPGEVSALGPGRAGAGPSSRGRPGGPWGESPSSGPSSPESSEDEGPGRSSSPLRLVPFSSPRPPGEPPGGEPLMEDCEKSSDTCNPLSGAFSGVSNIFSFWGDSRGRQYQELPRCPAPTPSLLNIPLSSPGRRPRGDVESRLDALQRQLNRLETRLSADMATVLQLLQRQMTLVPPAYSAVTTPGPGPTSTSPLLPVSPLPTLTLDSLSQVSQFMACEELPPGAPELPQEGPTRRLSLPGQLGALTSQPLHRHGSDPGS
Description: (§1) An hERG current was recorded by the whole-cell patch clamp technique. A suspension of HEK293 cells stably expressing the hERG ion channel was added to a 35 mm culture dish, and the culture dish was put on a stage of an inverted microscope. […] The pulse program was repeated every 15 seconds throughout the whole test. After the current became stable, the administration method of continuous extracellular perfusion from low concentration to high concentration was used, and the perfusion started from low concentration and continued until the drug effect was stable, and then the perfusion of the next concentration was performed.
(§2) After the test, stimulus release and signal acquisition were carried out through PatchMaster software. Graphpad Prism 8.0 was used for further data analysis and curve fitting. Effects of each compound at different concentrations were represented with an inhibition rate of the tail current. Inhibition rate=(peak tail current before administration—peak tail current after administration)/peak tail current before administration x 100%. Half-maximal inhibitory concentration IC50 of the test samples was obtained by the fitting analysis with Hill equation.

hERG ion channel = biological target: T2, hERG ion channel (Homo sapiens, UniProt Q12809); assay: as above; assay type: cell-based; settings: tail current, Hill equation fit
T2 construct: expressed in transfected cells; host or cells: HEK293 cells stably expressing hERG
T2 sequence (Q12809 whole entry): as above
Description: as §1, §2

MV4-11 cell = MV4-11 cell proliferation experiment (CCK-8 cell viability); assay type: cell-based; settings: Homo sapiens, MV4-11 cells, 72-hour culture
Description: EXAMPLE 9 Cell Experiment (MV4-11 Cell Proliferation Experiment)
Determination of Cell Viability with CCK-8 Reagent
(1) MV4-11 cell suspension was pipetted from a culture flask into a 15 mL centrifuge tube, and the cell suspension was centrifuged at 1000 rpm for 4 minutes.
(2) A supernatant in the centrifuge tube was discarded, and an appropriate amount of fresh complete medium (IMDM+10% FBS+1% P/S) was added to resuspend the cells. 20 μL of cell suspension was collected, 20 μL of trypan blue was added, and CounterStar was used for counting.
(3) A required cell suspension volume and complete medium volume were calculated according to viable cell density and the required number of plated cells. MV4-11 cells were plated at a density of 1*10^4 cells/well in 100 μL/well.
(4) 100 μL of the above cell suspension was pipetted into a 96-well plate by using an electric pipette. 150 μL of complete medium was added to blank control wells. PBS was added to peripheral wells of the 96-well plate, to avoid liquid evaporation. The 96-well plate was cultured overnight in an incubator.
Day 2: Compound Preparation:
(1) The compound of the present application dissolved in DMSO and the positive control substance ABBV-744 were fetched, and subjected to serial dilution (dilution in column A, column B, . . . , column J sequentially from left to right in a 96-well PCR plate).
An initial concentration of the solution in column A is 10 mM;
Column B: 2 μL of the solution in column A was diluted with 8 μL of DMSO to obtain a final concentration of 2000 μM;
Column C: 2 μL of the solution in column B was diluted with 8 μL of DMSO to obtain a final concentration of 400 μM;
Column D: 2 μL of the solution in column C was diluted with 8 μL of DMSO to obtain a final concentration of 80 μM;
Column E: 2 μL of the solution in column D was diluted with 8 μL of DMSO to obtain a final concentration of 16 μM;
Column F: 2 μL of the solution in column E was diluted with 8 μL of DMSO to obtain a final concentration of 3.2 μM;
Column G: 2 μL of the solution in column F was diluted with 8 μL of DMSO to obtain a final concentration of 0.64 μM;
Column H: 2 μL of the solution in column G was diluted with 8 μL of DMSO to obtain a final concentration of 0.128 μM;
Column I: 2 μL of the solution in column H was diluted with 8 μL of DMSO to obtain a final concentration of 0.0256 μM; and
Column J: 2 μL of the solution in column I was diluted with 8 μL of DMSO to obtain a final concentration of 0.00512 μM.
The suspension was centrifuged for 1 minute at 1000 rpm by using a low-speed centrifuge.
(2) 3×Compound Preparation: (Diluted in a 96-Well Cell Culture Plate)
3 μL of each of the solutions in columns B to J was pipetted into […] of complete medium by a 10 μL manual pipette to obtain 3×compound solutions with a final concentration of 30000, 6000, 1200, 240, 48, 9.6, 1.92, 0.384 and 0.0768 nM, respectively; and 3 μL of DMSO was pipetted into […] of complete medium as a control. The resulting 96-well cell culture plate was put on an oscillator to be oscillated at 500 rpm for 30 minutes.
(1) The prepared 3×compound solutions with the above concentrations were each pipetted by a manual pipette with its volume set to 50 μL into a corresponding well of the 96-well plate after overnight culture on the first day, and the total culture volume of each well was 150 μL. The final concentrations of the compounds in the 96-well plate were 10 μM, 2 μM, 400 nM, 80 nM, 16 nM, 3.2 nM, 0.64 nM, 0.128 nM and 0.0256 nM, respectively. The resulting 96-well plate was put on an oscillator to be oscillated at 500 rpm for 10 minutes.
(2) The 96-well plate as prepared was put in a CO2 incubator for 72-hour culture.
(1) CCK-8 test solution was pipetted into the 96-well cell culture plate in an amount of 15 μL/well by a pipette with a volume set to 15 μL.
(2) The 96-well plate was put in the CO2 incubator for 4-hour culture. […]

MV4-11 xenograft tumor = assay: In vivo efficacy test, MV4-11 xenograft tumor model in mice; settings: NOD-SCID mice, 5 mg/kg qd gavage, 14 days
Text: EXAMPLE 11 In Vivo Efficacy Test of the Compound of the Present Application
Objective: To test the inhibitory effect of the test compound on the growth of xenograft tumor in nude mice with MV4-11 leukemia.
Method: NOD-SCID mice were subcutaneously inoculated with MV4-11 cells to establish an MV4-11 xenograft tumor model in mice. 16 days after inoculation (d16), average tumor volume was about 210 mm^3. According to the tumor volumes, the tumor-bearing mice were grouped in a random block method, with 6 mice in each group. The groups included a solvent control group, an ABBV-744 control group, and a test sample group, the dosage was 5 mg/kg mouse body weight, and the dose volume was 10 mL/kg mouse body weight, once a day. Each group was gavage administered for 14 consecutive days, and the solvent control group was gavage administered with a blank solvent (20% […] solution). Tumor volumes were measured twice weekly after administration of the test drug. The animals were euthanized after the test.

[1] = read-out: Average hERG inhibition rate
[2] = read-out: hERG Inhibition rate, Cell 1
[3] = read-out: hERG Inhibition rate, Cell 2

- IC50 (MV4-11 cell): 0.0242 µM
SMILES: CCNC(=O)c1cc2c(-c3sc(C(C)(C)O)cc3N3CCc4cccc(F)c43)cn(C)c(=O)c2[nH]1 [Compound 2, N-ethyl-4-(3-(7-fluoroindolin-1-yl)-5-(2-hydroxypropyl-2-yl)thiophen-2-yl)-6-methyl-7-oxo-6,7-dihydro-1H-pyrrolo[2,3-c]pyridine-2-carboxamide]

- IC50 (MV4-11 cell): 0.0398 µM
SMILES: CCNC(=O)c1cc2c(-c3sc(C(C)(C)O)cc3N3CCc4cccc(C)c43)cn(C)c(=O)c2[nH]1 [Compound 3, N-ethyl-4-(5-(2-hydroxypropyl-2-yl)-3-(7-methylindolin-1-yl)thiophen-2-yl)-6-met hyl-7-oxo-6,7-dihydro-1H-pyrrolo[2,3-c]pyridine-2-carboxamide]

- IC50 (MV4-11 cell): 0.0121 µM
SMILES: CCNC(=O)c1cc2c(-c3sc(C(C)(C)O)cc3N3CCc4cc(C(F)(F)F)ccc43)cn(C)c(=O)c2[nH]1 [Compound 5, N-ethyl-4-(5-(2-hydroxypropyl-2-yl)-3-(5-trifluoromethylindolin-1-yl)thiophen-2-y I)-6-methyl-7-oxo-6,7-dihydro-1H-pyrrolo[2,3-c]pyridine-2-carboxamide]

- IC50 (MV4-11 cell): 0.0173 µM
SMILES: CCNC(=O)c1cc2c(-c3sc(C(C)(C)O)cc3N3CCc4cccc(C(F)(F)F)c43)cn(C)c(=O)c2[nH]1 [Compound 7, N-ethyl-4-(5-(2-hydroxypropyl-2-yl)-3-(7-(trifluoromethyl)indolin-1-yl)thiophen-2-yl)-6-methyl-7-oxo-6,7-dihydro-1H-pyrrolo[2,3-c]pyridine-2-carboxamide]

More lines, now with the values behind:

SMILES: CCNC(=O)c1cc2c(-c3cc(C(C)(C)O)ccc3Oc3c(C)cc(F)cc3C)cn(C)c(=O)c2[nH]1 [ABBV-744, reference compound]
- inhibition at 0.37 µM (hERG; [1]): 5.35%
- inhibition at 0.37 µM (hERG; [2]): 8.24%
- inhibition at 0.37 µM (hERG; [3]): 2.46%
- inhibition at 1.11 µM (hERG; [1]): 17.4%
- inhibition at 1.11 µM (hERG; [2]): 23%
- inhibition at 1.11 µM (hERG; [3]): 11.8%
- inhibition at 3.33 µM (hERG; [1]): 54.7%
- inhibition at 3.33 µM (hERG; [2]): 57.7%
- inhibition at 3.33 µM (hERG; [3]): 51.7%
- inhibition at 10 µM (hERG; [1]): 87.6%
- inhibition at 10 µM (hERG; [2]): 87.9%
- inhibition at 10 µM (hERG; [3]): 87.3%
- inhibition at 30 µM (hERG; [1]): 99.1%
- inhibition at 30 µM (hERG; [2]): 99.4%
- inhibition at 30 µM (hERG; [3]): 98.7%
- IC50 (hERG ion channel): 3.12 µM
- IC50 (MV4-11 cell): 0.00722 µM
- Relative tumor proliferation rate T/C (MV4-11 xenograft tumor): 45.98%

SMILES: CCNC(=O)c1cc2c(-c3sc(C(C)(C)O)cc3N3CCc4cc(F)ccc43)cn(C)c(=O)c2[nH]1 [Compound 4, N-ethyl-4-(3-(5-fluoroindolin-1-yl)-5-(2-hydroxypropyl-2-yl)thiophen-2-yl)-6-methyl-7-oxo-6,7-dihydro-1H-pyrrolo[2,3-c]pyridine-2-carboxamide]
- IC50 (MV4-11 cell): 0.0063 µM

SMILES: CCNC(=O)c1cc2c(-c3sc(C(C)(C)O)cc3N3CCCc4cc(F)ccc43)cn(C)c(=O)c2[nH]1 [Compound 6, N-ethyl-4-(5-(2-hydroxypropyl-2-yl)-3-(6-fluoro-3,4-dihydroquinolin-1(2H)-yl)thiophen-2-yl)-6-methyl-7-oxo-6,7-dihydro-1H-pyrrolo[2,3-c]pyridine-2-carboxamide]
- IC50 (MV4-11 cell): 0.0082 µM

From patent US20230357240A1, “NOVEL N-HETEROCYCLIC BET BROMODOMAIN INHIBITOR, AND PREPARATION METHOD THEREOF AND MEDICAL USE THEREOF” (Chengdu Easton Biopharmaceuticals Co., Ltd., priority 2020, published 2023)
